Reference: patent publication US10656162B2, “Use of glu-tubulin as a biomarker of drug response to furazanobenzimidazoles” (Basilea Pharmaceutica AG, priority 2011, dated 2020)

Legend:
[1] = tested on: CXF 1103 patient-derived colorectal tumour; experiment: Colony outgrowth assay, CXF 1103; assay type: cell-based, human; settings: for Response to compound (BAL27862, paclitaxel, vinblastine): CXF 1103, colorectal cancer, ex vivo colony outgrowth
Protocol: (§1) Single cell suspensions of patient-derived tumour xenografts (maintained in nude mice) were prepared. For colony outgrowth assays, cells were plated in soft agar in 24-well plates according to the assay introduced by Hamburger & Salmon (Primary bioassay of human tumour stem cells, Science, 1977.197:461-463). 2×10^4-6×10^4 cells in 0.2 mL medium containing 0.4% agar were plated out on a bottom layer of 0.75% agar. Test compounds were applied in 0.2 mL culture medium. Every 24-well plate contained untreated controls and samples in triplicates. Cultures were incubated at 37° C. and 7.5% CO2 for 5-28 days. 24 hours prior to analysis, vital colonies were stained with a solution of metabolisable tetrazolium salt (Alley M C et al, Life Sci. 1982, 31:3071-3078) and were counted with an automatic image analysis system (Omnicon 3600, Biosys GmbH).
(§2) Relative drug effects were expressed by the ratio of the mean number of colonies in the treated wells and the control wells. IC70-values were determined by plotting compound concentrations versus relative colony counts.

[2] = tested on: CXF 243 patient-derived colorectal tumour; experiment: Colony outgrowth assay, CXF 243; assay type: cell-based, human; design: key to Response to compound (BAL27862, paclitaxel, vinblastine): Sensitive: BAL27862-sensitive tumour cells have IC70 values in the low nanomolar range; Resistant: BAL27862-resistant tumour cells are defined by IC70 values >600 nanomolar
Protocol: as §1, §2

[3] = tested on: LXFE 211 Patient-derived lung tumour; experiment: Colony outgrowth assay, LXFE 211; assay type: cell-based, human; design: key to Response to compound (BAL27862, paclitaxel, vinblastine): Sensitive: BAL27862-sensitive tumour cells have IC70 values in the low nanomolar range; Resistant: BAL27862-resistant tumour cells are defined by IC70 values >600 nanomolar; settings: for Response to compound (BAL27862, paclitaxel, vinblastine): LXFE 211, lung cancer, ex vivo colony outgrowth
Protocol: as §1, §2

[4] = tested on: LXFE 397 Patient-derived lung tumour; experiment: Colony outgrowth assay, LXFE 397; assay type: cell-based, human
Protocol: as §1, §2

[5] = tested on: MEXF 1341 patient-derived melanoma; experiment: Colony outgrowth assay, MEXF 1341; assay type: cell-based, human; design: key to Response to compound (BAL27862, paclitaxel, vinblastine): Sensitive: BAL27862-sensitive tumour cells have IC70 values in the low nanomolar range; Resistant: BAL27862-resistant tumour cells are defined by IC70 values >600 nanomolar; settings: for Response to compound (BAL27862, paclitaxel, vinblastine): MEXF 1341, melanoma, ex vivo colony outgrowth
Protocol: as §1, §2

[6] = tested on: MEXF 276 patient-derived melanoma; experiment: Colony outgrowth assay, MEXF 276; assay type: cell-based, human; settings: for Response to compound (BAL27862, paclitaxel, vinblastine): MEXF 276, melanoma, ex vivo colony outgrowth
Protocol: as §1, §2

[7] = tested on: A549 BAL27862-resistant cell line variant; experiment: Crystal Violet assay, BAL27862-resistant A549 versus parental line; assay type: cell-based, human; settings: for Resistance factors (ratio of IC50 BAL27862-resistant cell line variant and IC50 parental cell line): A549, 72 hours, Crystal Violet
Source text: (§3) BAL27862-resistant sublines of human non-small cell lung cancer (H460 ATCC reference HTB-177; A549 ATCC reference CCL-185), ovarian cancer (SKOV3 ATCC reference HTB-77) lines were generated by long-term selection in complete cell culture medium (RPMI-1640 containing 10% FCS; Sigma-Aldrich) by stepwise increasing concentrations of BAL27862. […] The resistant sublines were expanded at the highest tolerated BAL27862 concentration and subsequently frozen and stored in liquid nitrogen.
(§4) After medium was removed, cells were fixed and stained by adding 50 μl Crystal Violet Staining (0.2% Crystal Violet in 50% Methanol) per well. Plates were incubated for 1 hour at room temperature. Subsequently the stain was decanted and plates were washed 4 times with double-distilled water. Plates were air-dried for several hours. Stain was dissolved by adding 100 μl buffer (0.1 M Tris pH 7.5, 0.2% SDS, 20% Ethanol) per well and shaking the plates. Absorbance at 590 nm was measured using a SpectraMax M2e plate reader (Molecular Devices). Anti-proliferative IC50 values were calculated from concentration response curves using GraphPad Prism software. Resistance factors were calculated as a ratio of BAL27862 IC50 in the resistant line variant versus the IC50 in the parental line.

[8] = tested on: H460 BAL27862-resistant cell line variant; experiment: Crystal Violet assay, BAL27862-resistant H460 versus parental line; assay type: cell-based, human; settings: for Resistance factors (ratio of IC50 BAL27862-resistant cell line variant and IC50 parental cell line): H460, 72 hours, Crystal Violet
Source text: as §3, §4

SKOV3 resistant 1 = experiment: Crystal Violet assay, SKOV3 resistant 1 versus parental line; assay type: cell-based, human; settings: for Resistance factors (ratio of IC50 BAL27862-resistant cell line variant and IC50 parental cell line): SKOV3 resistant 1, 72 hours, Crystal Violet
Source text: as §3, §4

SKOV3 resistant 2 = experiment: Crystal Violet assay, SKOV3 resistant 2 versus parental line; assay type: cell-based, human; settings: for Resistance factors (ratio of IC50 BAL27862-resistant cell line variant and IC50 parental cell line): SKOV3 resistant 2, 72 hours, Crystal Violet
Source text: as §3, §4

A549 NSCLC cells = experiment: Immunofluorescent staining of microtubules, A549; assay type: cell-based, human; settings: for Microtubule phenotype of mitotic or G2/M arrested cells: A549, 24 hours, 50 nM BAL27862, 80 nM Compound B, 20 nM Compound C, anti-alpha-tubulin staining
Protocol: (§5) A549 human non-small cell lung cancer (NSCLC, ATCC reference number CCL-185) cells, HeLa cervical cancer cells (ATCC reference number CCL-2) and SKBR3 breast carcinoma cells (ATCC reference number HTB-30) were seeded at densities of 50% on round microscope coverslips and cultured for 24 hours in RPMI-1640 containing 10% FCS (also referred to as FBS) at 37° C., 5% CO2. Compounds to be tested were dissolved in DMSO. The cell culture medium was replaced with medium containing the diluted compound(s) (paclitaxel, vinblastine, colchicine and nocodazole were purchased from Sigma-Aldrich) or vehicle. After treatment for the times indicated in the Brief Description of the Figures, coverslips were washed and cells were fixed in methanol/acetone (1:1) for 5 minutes at room temperature and subsequently incubated in blocking buffer (0.5% BSA and 0.1% TX-100 in PBS) for 30 minutes at room temperature. Specimens were then incubated with anti-alpha-tubulin (Sigma, 1:2000) for 1 hour at room temperature in blocking buffer. After several washing steps cells were incubated with AlexaFluor-488 goat-anti-mouse IgG (Molecular Probes, 1:3000) for 1 hour at room temperature followed by several washing steps with blocking buffer. Specimens were then mounted with ProLong Gold antifade (Molecular Probes, sealed with nail polish and examined with a Leica immunofluorescence microscope. Images were captured with a cooled CCD-camera and processed by ImageJ software.

[9] = tested on: HeLa cervical cancer cells; experiment: Immunofluorescent staining of microtubules, HeLa; assay type: cell-based, human; settings: 24 hours, 50 nM BAL27862
Protocol: as §5, with “Specimens were then mounted with ProLong Gold antifade (Molecular Probes, sealed with nail polish and examined with a Leica immunofluorescence microscope. Images were captured with a cooled CCD-camera and processed by ImageJ software.” left out

[10] = tested on: SKBR3 breast cancer cells; experiment: Immunofluorescent staining of microtubules, SKBR3; assay type: cell-based, human; settings: SKBR3, 24 hours, 50 nM BAL27862
Protocol: as §5, with “Specimens were then mounted with ProLong Gold antifade (Molecular Probes, sealed with nail polish and examined with a Leica immunofluorescence microscope. Images were captured with a cooled CCD-camera and processed by ImageJ software.” left out

[11] = tested on: experimental, solid tumour xenograft models; experiment: Solid tumour xenograft models; settings: in vivo
[12] = tested on: P-gp pump over-expressing models; experiment: Models over-expressing the P-gp pump; assay type: cell-based; settings: models tested in vitro; also human mammary tumour xenografts

Structure (SMILES)	Response to compound (BAL27862, paclitaxel, vinblastine) [1]	Response to compound (BAL27862, paclitaxel, vinblastine) [3]	Response to compound (BAL27862, paclitaxel, vinblastine) [5]	Response to compound (BAL27862, paclitaxel, vinblastine) [6]	Resistance factors (ratio of IC50 BAL27862-resistant cell line variant and IC50 parental cell line) [7]	Resistance factors (ratio of IC50 BAL27862-resistant cell line variant and IC50 parental cell line) [8]	Resistance factors (ratio of IC50 BAL27862-resistant cell line variant and IC50 parental cell line) (SKOV3 resistant 1)	Resistance factors (ratio of IC50 BAL27862-resistant cell line variant and IC50 parental cell line) (SKOV3 resistant 2)	also measured
N#CCCNc1nonc1-c1nc2ccccc2n1CC(=O)c1ccc(N)cc1 [BAL27862, 3-(4-{1-[2-(4-Amino-phenyl)-2-oxo-ethyl]-1H-benzoimidazol-2-yl}-furazan-3-ylamino)-propionitrile]	Sensitive	Sensitive	Sensitive	Resistant (BAL27862-resistant tumour cells are defined by IC70 values >600 nanomolar)	3.0	5.3	7.6	11.6	IC70 BAL27862 ([1]; CXF 1103, 70% growth inhibition versus controls): 22 nM; IC70 BAL27862 ([2]; CXF 243, 70% growth inhibition versus controls): 696 nM; IC70 BAL27862 ([3]; LXFE 211, 70% growth inhibition versus controls): 21 nM; IC70 BAL27862 ([4]; LXFE 397, 70% growth inhibition versus controls): >3500 nM; Response to compound (BAL27862, paclitaxel, vinblastine) ([4]; LXFE 397, lung cancer, ex vivo colony outgrowth): Resistant (BAL27862-resistant tumour cells are defined by IC70 values >600 nanomolar); IC70 BAL27862 ([5]; MEXF 1341, 70% growth inhibition versus controls): 25 nM; IC70 BAL27862 ([6]; MEXF 276, 70% growth inhibition versus controls): >3500 nM; BAL27862 resistance factors versus parental lines ([7]; A549, based on IC50 determinations): 3.0 fold; BAL27862 resistance factors versus parental lines ([8]; H460, based on IC50 determinations): 5.3 fold; BAL27862 resistance factors versus parental lines (SKOV3 resistant 1; SKOV3 resistant 1, based on IC50 determinations): 7.6 fold; BAL27862 resistance factors versus parental lines (SKOV3 resistant 2; SKOV3 resistant 2, based on IC50 determinations): 11.6 fold; Microtubule phenotype on combination treatment (A549 NSCLC cells; A549, 24 hours vinblastine, colchicine, paclitaxel or nocodazole with the final 4 hours including BAL27862): disruption of the microtubule structures; Microtubule phenotype of mitotic or G2/M arrested cells (A549 NSCLC cells): multiple dot-like structures are visible; Microtubule phenotype of mitotic or G2/M arrested cells (A549 NSCLC cells; listed as compound A): highly reproducible and distinct microtubule phenotype; Microtubule phenotype of mitotic or G2/M arrested cells [9]: highly reproducible and distinct microtubule phenotype; Microtubule phenotype of mitotic or G2/M arrested cells [10]: highly reproducible and distinct microtubule phenotype; Activity in tumour xenograft models [11]: activity across a broad panel of experimental, solid tumour xenograft models; Activity with over-expression of the P-gp pump [12]: not affected
COC(=O)Nc1nc2ccc(C(=O)c3cccs3)cc2[nH]1 [Nocodazole, nocodazole]	–	–	–	–	1.6	1.3	3.6	3.9	–
CC[C@]1(O)C[C@@H]2CN(CCc3c([nH]c4ccccc34)[C@@](C(=O)OC)(c3cc4c(cc3OC)N(C)[C@H]3[C@@](O)(C(=O)OC)[C@H](OC(C)=O)[C@]5(CC)C=CCN6CC[C@]43[C@@H]65)C2)C1 [Vinblastine, vinblastine, reference compound]	Resistant (BAL27862-resistant tumour cells are defined by IC70 values >600 nanomolar)	Sensitive	Sensitive	Sensitive	2.3	4.6	15.7	–	Response to compound (BAL27862, paclitaxel, vinblastine) ([2]; CXF 243, colorectal cancer, ex vivo colony outgrowth): Sensitive
